Experiment [1] has as its system βPKC. The experiment can be described thus: βPKC translocation (soluble vs particulate fraction) in Xenopus oocytes. To be noted: peptide 50 μM microinjected; for insulin (hormone)-induced βPKC translocation: 60 min after insulin; for βPKC distribution / translocation in the absence of insulin treatment: untreated oocytes, 60 min. In kind it is cell-based. As for the experimental part:
Insulin causes the translocation of βPKC, but not other PKC isozymes, from a cytosolic form to a membrane-associated form, as evidenced by the relative levels of PKC in the soluble vs. the particulate fraction of oocyte homogenate. To assess the effects of RACK1 WD-40-derived peptides on insulin-induced PKC translocation, 50 nl of a 20 mM NaCl solution containing the indicated peptides were microinjected into Xenopus oocytes. The oocytes were then homogenized, and the relative amount of PKC in the soluble and particulate fractions was assayed. The protocol followed was a modification of a method described by Smith, et al. (1992).
Batches of 50 oocytes were microinjected with either peptide rVI (SEQ ID NO:7; 50 μM; lanes 3, 4), peptide I (SEQ ID NO:1; 50 μM, lanes 7, 8) or injection solution (NaCl 20 mM, lanes 1,2 and 5,6). Homogenates from each batch were prepared 60 minutes after microinjection (lanes 1-4) or 60 minutes after addition of insulin (lanes 5-8). The homogenates were centrifuged at 10,000 g for 3 minutes, the upper layer (containing fat and yolk) was removed, and the remainder was frozen at −70° C. Prior to use, the samples were thawed, 200 μl homogenization buffer was added and the samples were centrifuged at 100,000 g for 30 minutes at 4° C. The supernatants (soluble fraction) were removed and concentrated to 20 μl using “CENTRICON” concentrators (Amicon,Beverly, Mass.). The pellets (particulate fractions) were dissolved in 20 μl of homogenization buffer. The samples were resolved on an 8% SDS/PAGE gel and blotted onto nitrocellulose. The amount of PKC in each fraction was determined by Western blot using anti-βPKC antibodies (1:1000 dilution; Seikagaku Kogyo, Tokyo, Japan). Bound primary antibodies were detected by chemiluminescence as described in Example 3, part C.

Experiment [2] addresses T1, βPKC (Rattus norvegicus, UniProt P68403).
T1 construct: All the solutions contained 5 nM rat brain PKC; from tissue; host or cells: rat brain
The experiment can be described thus: Sensitivity of βPKC to Arg-C endopeptidase (nicking). The format is biochemical. To be noted: low activators: 2.5 μg/ml PS and 50 μM CaCl2; for nicking of βPKC by Arg-C (78 kDa fragment): peptide 10 μM. From the text: Upon activation of PKC, a pseudosubstrate autoinhibitory sequence at the N-terminus of the molecule dissociates from the catalytic site and becomes sensitive to endopeptidase Arg-C (Orr, et al.). In the absence of PKC activators, exposure of the 80 kDa βPKC to endopeptidase Arg-C has no effect on the enzyme (see FIG. 7, lane 1). In the presence of the PKC activators PS, DG and calcium, however, exposure of βPKC to Arg-C results in a “nicking” of the PKC (i.e. limited proteolysis generating a 78 kDa fragment and several small fragments (see FIG. 7, lane 2)). Continued exposure to Arg-C results in the disappearance of βPKC (Orr, et al.). The present experiment tests whether peptides derived from the WD-40 region of RACK1 alter the sensitivity of βPKC to endopeptidase Arg-C.
The methods used to assay Arg-C sensitivity are a modification of methods described by Orr, et al. Rat brain PKC (˜5 nM) was incubated at room temperature in 500 μl of 20 mM Tris-HCl buffer (pH 7.5) alone or with Arg-C (5 units/ml) in the presence or absence of the indicated peptides (final concentration 10 μM or as indicated), PS, DG, and calcium (as indicated). 50 μl aliquots were removed into 20 μl of sample buffer during the reaction as indicated (samples in all the lanes were incubated for 30 minutes , except lanes 5, and 6, which were incubated for 5 and 15 minutes, respectively). The samples were boiled for 10 minutes at 80° C. and loaded onto 8% SDS-PAGE. βPKC was detected by Western blot analysis using anti-βPKC antibodies as described in Examples 6 and 8.
PKC was incubated for the indicated time alone (lane 1) or in the presence of Arg-C (lanes 2-9), with DG (0.8 μg/ml), PS (50 μg/ml) and CaCl2 (1 mM; lane 2), with PS (50 μg/ml) and CaCl2 (1 mM; lane 3), with PS (2.5 μg/ml) and CaCl2 (50 μM; lane 4); with PS (2.5 μg/ml), CaCl2 (50 μM) and with either peptide rVI (SEQ ID NO:7; 10 μM; lanes 5-7), control peptide (SEQ ID NO:9; lane 8) or with peptide I (SEQ ID NO:1; lane 9).

The test system of another experiment is δ and εPKC isozymes. The experiment can be described thus: PKC isozyme translocation and degradation in cardiac myocytes. In kind it is cell-based, rat. On the procedure:
In cardiac myocytes, norepinephrine (NE, 2 μM) causes translocation of δ and εPKC isozymes from the cytosolic to the particulate fraction. […] This peptide-induced translocation was followed by degradation of δ and εPKC isozymes.

The subject of the next experiment is PKC. The experiment can be described thus: Histone type IIIs phosphorylation by PKC. The format is biochemical. To be noted: absence of PS, DG and calcium; peptide 10 μM. On the procedure: Histone type IIIs (Sigma Chemical Company, St. Louis, Mo.) was phosphorylated by PKC (˜10 nM) in the absence (lane 1) and presence of peptide rVI (10 μM) (lanes 2 and 3) and in the presence and absence of DG (0.8 μg/ml), PS (50 μg/ml) and CaCl2 (1 mM) (lane 3). The results are expressed as percentage of control that is the amount of Histone phosphorylation by PKC in the presence of DG (0.8 μg/ml), PS (50 μg/ml) and CaCl2 (1 mM). The results are the average ± SEM of two independent experiments. PKC was first incubated with the peptide rVI (10 μM) for 15 minutes in overlay buffer as described above. Histone type IIIs (40 μg/ml) was added in Tris-HCl (20 mM), MgCl2 (20 mM), ATP (20 μM) and ([γ-^32P]ATP (5 μci/ml) with or without PS (50 μg/ml), DG (0.8 μg/ml) and CaCl2 (1 mM). Histone phosphorylation was determined by autoradiography as above.

[3] abbreviates: peptide introduced into cardiac myocytes.

“Also recorded” adds a separate entry of the source.

T1 sequence (P68403 whole entry): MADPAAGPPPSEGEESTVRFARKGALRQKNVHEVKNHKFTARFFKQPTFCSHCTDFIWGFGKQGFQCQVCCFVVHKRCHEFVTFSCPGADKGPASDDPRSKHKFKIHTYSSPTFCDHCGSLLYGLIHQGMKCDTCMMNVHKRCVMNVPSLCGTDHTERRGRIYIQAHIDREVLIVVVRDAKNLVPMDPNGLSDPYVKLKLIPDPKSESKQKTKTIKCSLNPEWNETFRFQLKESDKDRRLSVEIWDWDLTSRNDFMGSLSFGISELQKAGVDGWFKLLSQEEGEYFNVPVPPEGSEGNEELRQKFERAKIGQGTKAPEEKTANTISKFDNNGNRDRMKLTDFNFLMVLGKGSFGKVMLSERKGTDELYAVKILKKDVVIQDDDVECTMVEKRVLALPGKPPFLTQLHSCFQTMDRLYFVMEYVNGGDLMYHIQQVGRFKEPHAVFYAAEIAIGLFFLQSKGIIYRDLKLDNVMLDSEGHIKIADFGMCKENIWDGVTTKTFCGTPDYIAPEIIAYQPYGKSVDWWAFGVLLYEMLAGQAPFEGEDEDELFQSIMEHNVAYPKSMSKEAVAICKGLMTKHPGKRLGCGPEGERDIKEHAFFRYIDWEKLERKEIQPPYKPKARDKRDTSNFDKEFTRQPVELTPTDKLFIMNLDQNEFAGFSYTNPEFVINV

Consider “peptide I: 15-residue peptide homologous to a sequence in the sixth WD-40 repeat of RACK1; PKC antagonist (KGDYEKILVALCGGN)”, for which, in the experiment on βPKC [1], the “insulin (hormone)-induced βPKC translocation” value was “inhibited hormone-induced translocation; also recorded: inhibited insulin-induced βPKC translocation” and the “βPKC distribution / translocation in the absence of insulin treatment” value was “did not affect βPKC distribution”. Moreover, the “nicking of βPKC by Arg-C (78 kDa fragment)” value in the experiment with βPKC [2] is given as “did not result in appreciable nicking activity; also recorded: did not occur”. Moreover, the “NE-induced translocation of δ and εPKC” value in the experiment on δ and εPKC isozymes (norepinephrine 2 μM) is “inhibited”. In the experiment with δ and εPKC isozymes (setting [3]), the “degradation of PKC isozymes” value was “nor does it induce PKC degradation; also recorded: did not cause degradation”; the “translocation / distribution of δ and εPKC isozymes in the absence of hormone stimulation” value is listed as “does not affect PKC distribution”.
Take “peptide rVI: eight amino acid peptide identical to a segment of RACK1 WD-40 repeat VI (DIINALCF)”: in the experiment on βPKC [1], the “insulin (hormone)-induced βPKC translocation” value is recorded as “augments hormone-induced translocation” and the “βPKC distribution / translocation in the absence of insulin treatment” value was “induced βPKC translocation”. Besides, in the experiment with βPKC [2], the “lowest peptide concentration sufficient to result in nicking activity” value is listed as 10 nM and the “nicking of βPKC by Arg-C (78 kDa fragment)” value is reported as “time-dependent appearance of the 78 kDa nicked PKC fragment”. Also, the “induction of PKC-mediated histone phosphorylation” value in the experiment on PKC is on record as “effective to induce PKC-mediated histone phosphorylation; also recorded: induced histone phosphorylation”.
